Assay results published in patent US20230085307A1, “PYRIDAZINONE COMPOUND AND HERBICIDE” (NISSAN CHEMICAL CORPORATION, priority 2019, published 2023).

Key:
barnyard grass [1] = experiment: Test Example 3: herbicidal effect by foliage application, Wagner pot (Table 18, symbol H); type: in vivo, barnyard grass (Echinochloa crus-galli); settings: amount of applied herbicide 320 g/ha
Outline: (§1)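 Plants were sown in alluvial soil held under 0.1–0.5 cm standing water and grown 14 days in a greenhouse at 25–30 °C. An emulsifiable formulation, water-diluted to the set dose, was then sprayed onto the foliage, and effects were scored three weeks later using previously defined criteria.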

Chinese sprangletop = experiment: Test Example 3: herbicidal effect by foliage application, Wagner pot (Table 18, symbol D); type: in vivo, chinese sprangletop (Leptochloa chinensis); settings: amount of applied herbicide 320 g/ha
Outline: as §1

rice flat sedge = experiment: Test Example 3: herbicidal effect by foliage application, Wagner pot (Table 18, symbol E); type: in vivo, rice flat sedge (Cyperus iria); settings: amount of applied herbicide 320 g/ha
Outline: as §1

southern crabgrass [2] = experiment: Test Example 4: herbicidal effect by soil treatment (Table 19, symbol F); type: in vivo, southern crabgrass (Digitaria ciliaris); settings: amount of applied herbicide 320 g/ha
Outline: (§2)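 In this soil treatment, the formulated compound reached the seeds only through the soil: seeds were buried about 1.5 cm deep in sterilized diluvial soil, then the diluted emulsion was sprayed over the surface. After three weeks at 25° C. to 30° C. in a greenhouse, effects were graded on criteria from an earlier test.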

green foxtail [3] = experiment: Test Example 4: herbicidal effect by soil treatment (Table 19, symbol G); type: in vivo, green foxtail (Setaria viridis); settings: amount of applied herbicide 320 g/ha
Outline: as §2

barnyard grass [4] = experiment: Test Example 4: herbicidal effect by soil treatment (Table 19, symbol H); type: in vivo, barnyard grass (Echinochloa crus-galli); settings: amount of applied herbicide 320 g/ha
Excerpt: (§3) [Test Example 4] Herbicidal Effect Test by Soil Treatment
(§4) Sterilized diluvial soil was placed in a plastic box having a length of 21 cm, a width of 13 cm, and a depth of 7 cm. The seeds of each of southern crabgrass, green foxtail, barnyard grass, wild oat, blackgrass, Italian ryegrass, windgrass, velvetleaf, redroot pigweed, lambsquarters, chickweed, false cleavers, persian speedwell, corn, soybean, rice, wheat, beet, and rapeseed were sowed in a spot-like manner and covered with the soil having a thickness of about 1.5 cm. Subsequently, the emulsion agent of the compound of the present invention prepared according to Formulation Example 2 was diluted with water so as to achieve a predetermined herbicide amount, and the diluted emulsion agent was uniformly applied to the surface of the soil with a small-sized spray. The plastic box was placed in a greenhouse at 25° C. to 30° C. for growth of the plants. Three weeks after the herbicide application, the effect of the herbicide on each plant was evaluated according to the criteria of Test Example 1.

wild oat [5] = experiment: Test Example 4: herbicidal effect by soil treatment (Table 19, symbol I); type: in vivo, wild oat (Avena fatua); settings: amount of applied herbicide 320 g/ha
Excerpt: as §3, §4

blackgrass [6] = experiment: Test Example 4: herbicidal effect by soil treatment (Table 19, symbol J); type: in vivo, blackgrass (Alopecurus myosuroides); settings: amount of applied herbicide 320 g/ha
Excerpt: as §3, §4

Italian ryegrass [7] = experiment: Test Example 4: herbicidal effect by soil treatment (Table 19, symbol K); type: in vivo, Italian ryegrass (Lolium multiflorum); settings: amount of applied herbicide 320 g/ha
Excerpt: as §3, §4

windgrass [8] = experiment: Test Example 4: herbicidal effect by soil treatment (Table 19, symbol L); type: in vivo, windgrass (Apera spica-venti); settings: amount of applied herbicide 320 g/ha
Excerpt: as §3, §4

velvetleaf [9] = experiment: Test Example 4: herbicidal effect by soil treatment (Table 19, symbol M); type: in vivo, velvetleaf (Abutilon theophrasti); settings: amount of applied herbicide 320 g/ha
Excerpt: as §3, §4

redroot pigweed [10] = experiment: Test Example 4: herbicidal effect by soil treatment (Table 19, symbol N); type: in vivo, redroot pigweed (Amaranthus retroflexus); settings: amount of applied herbicide 320 g/ha
Excerpt: as §3, §4

lambsquarters [11] = experiment: Test Example 4: herbicidal effect by soil treatment (Table 19, symbol O); type: in vivo, lambsquarters (Chenopodium album); settings: amount of applied herbicide 320 g/ha
Excerpt: as §3, §4

chickweed [12] = experiment: Test Example 4: herbicidal effect by soil treatment (Table 19, symbol P); type: in vivo, common chickweed (Stellaria media); settings: amount of applied herbicide 320 g/ha
Excerpt: as §3, §4

southern crabgrass [13] = experiment: Test Example 5: herbicidal effect by foliage application, plastic box (Table 20, symbol F); type: in vivo, southern crabgrass (Digitaria ciliaris); settings: foliage application, evaluated three weeks after application
Outline: (§5)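 Plants were sown into sterilized diluvial soil under about 1.5 cm cover and kept in a greenhouse at 25° C. to 30° C. Fourteen days on, foliage received an even spray of the diluted emulsion. Herbicidal or crop effect was judged three weeks afterwards.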

green foxtail [14] = experiment: Test Example 5: herbicidal effect by foliage application, plastic box (Table 20, symbol G); type: in vivo, green foxtail (Setaria viridis); settings: foliage application, evaluated three weeks after application
Outline: as §5

barnyard grass [15] = experiment: Test Example 5: herbicidal effect by foliage application, plastic box (Table 20, symbol H); type: in vivo, barnyard grass (Echinochloa crus-galli); settings: foliage application, evaluated three weeks after application
Outline: as §5

wild oat [16] = experiment: Test Example 5: herbicidal effect by foliage application, plastic box (Table 20, symbol I); type: in vivo, wild oat (Avena fatua); settings: foliage application, evaluated three weeks after application
Outline: as §5

blackgrass [17] = experiment: Test Example 5: herbicidal effect by foliage application, plastic box (Table 20, symbol J); type: in vivo, blackgrass (Alopecurus myosuroides); settings: foliage application, 320 g/ha, evaluated three weeks after application
Outline: as §5

Italian ryegrass [18] = experiment: Test Example 5: herbicidal effect by foliage application, plastic box (Table 20, symbol K); type: in vivo, Italian ryegrass (Lolium multiflorum); settings: foliage application, evaluated three weeks after application
Outline: as §5

windgrass [19] = experiment: Test Example 5: herbicidal effect by foliage application, plastic box (Table 20, symbol L); type: in vivo, windgrass (Apera spica-venti); settings: foliage application, evaluated three weeks after application
Outline: as §5

velvetleaf [20] = experiment: Test Example 5: herbicidal effect by foliage application, plastic box (Table 20, symbol M); type: in vivo, velvetleaf (Abutilon theophrasti); settings: foliage application, evaluated three weeks after application
Outline: as §5

redroot pigweed [21] = experiment: Test Example 5: herbicidal effect by foliage application, plastic box (Table 20, symbol N); type: in vivo, redroot pigweed (Amaranthus retroflexus); settings: foliage application, evaluated three weeks after application
Outline: as §5

lambsquarters [22] = experiment: Test Example 5: herbicidal effect by foliage application, plastic box (Table 20, symbol O); type: in vivo, lambsquarters (Chenopodium album); settings: foliage application, evaluated three weeks after application
Outline: as §5

chickweed [23] = experiment: Test Example 5: herbicidal effect by foliage application, plastic box (Table 20, symbol P); type: in vivo, common chickweed (Stellaria media); settings: foliage application, evaluated three weeks after application
Outline: as §5

persian speedwell = experiment: Test Example 5: herbicidal effect by foliage application, plastic box (Table 20, symbol R); type: in vivo, Persian speedwell (Veronica persica); settings: foliage application, evaluated three weeks after application
Outline: as §5

SMILES: COc1ccc(-c2sc3ccc(Cl)cc3c2-c2c(O)c(C)nn(C)c2=O)cc1C [2-119]
- herbicidal effect on H: barnyard grass (barnyard grass [1]): 3 (Herbicidal rate of 40% or more and less than 70%)
- herbicidal effect on D: Chinese sprangletop (Chinese sprangletop): 2 (Herbicidal rate of 20% or more and less than 40%)
- herbicidal effect on E: rice flat sedge (rice flat sedge): 3 (Herbicidal rate of 40% or more and less than 70%)
- F: southern crabgrass, herbicidal effect rating (southern crabgrass [2]): 0 (Herbicidal rate of 5% or less (almost no effect))
- G: green foxtail, herbicidal effect rating (green foxtail [3]): 0 (Herbicidal rate of 5% or less (almost no effect))
- H: barnyard grass, herbicidal effect rating (barnyard grass [4]): 0 (Herbicidal rate of 5% or less (almost no effect))
- I: wild oat, herbicidal effect rating (wild oat [5]): 0 (Herbicidal rate of 5% or less (almost no effect))
- J: blackgrass, herbicidal effect rating (blackgrass [6]): 0 (Herbicidal rate of 5% or less (almost no effect))
- K: Italian ryegrass, herbicidal effect rating (Italian ryegrass [7]): 0 (Herbicidal rate of 5% or less (almost no effect))
- L: windgrass, herbicidal effect rating (windgrass [8]): 0 (Herbicidal rate of 5% or less (almost no effect))
- M: velvetleaf, herbicidal effect rating (velvetleaf [9]): 0 (Herbicidal rate of 5% or less (almost no effect))
- N: redroot pigweed, herbicidal effect rating (redroot pigweed [10]): 0 (Herbicidal rate of 5% or less (almost no effect))
- O: lambsquarters, herbicidal effect rating (lambsquarters [11]): 2 (Herbicidal rate of 20% or more and less than 40%)
- P: chickweed, herbicidal effect rating (chickweed [12]): 0 (Herbicidal rate of 5% or less (almost no effect))
- herbicidal effect on F: southern crabgrass (southern crabgrass [13]; 320 g/ha): 0 (Herbicidal rate of 5% or less (almost no effect))
- herbicidal effect on G: green foxtail (green foxtail [14]; 320 g/ha): 0 (Herbicidal rate of 5% or less (almost no effect))
- herbicidal effect on H: barnyard grass (barnyard grass [15]; 320 g/ha): 1 (Herbicidal rate of 5% or more and less than 20%)
- herbicidal effect on I: wild oat (wild oat [16]; 320 g/ha): 0 (Herbicidal rate of 5% or less (almost no effect))
- herbicidal effect on J: blackgrass (blackgrass [17]): 3 (Herbicidal rate of 40% or more and less than 70%)
- herbicidal effect on K: Italian ryegrass (Italian ryegrass [18]; 320 g/ha): 0 (Herbicidal rate of 5% or less (almost no effect))
- herbicidal effect on L: windgrass (windgrass [19]; 320 g/ha): 0 (Herbicidal rate of 5% or less (almost no effect))
- herbicidal effect on M: velvetleaf (velvetleaf [20]; 320 g/ha): 3 (Herbicidal rate of 40% or more and less than 70%)
- herbicidal effect on N: redroot pigweed (redroot pigweed [21]; 320 g/ha): 0 (Herbicidal rate of 5% or less (almost no effect))
- herbicidal effect on O: lambsquarters (lambsquarters [22]; 320 g/ha): 3 (Herbicidal rate of 40% or more and less than 70%)
- herbicidal effect on P: chickweed (chickweed [23]; 320 g/ha): 1 (Herbicidal rate of 5% or more and less than 20%)
- herbicidal effect on R: persian speedwell (persian speedwell; 320 g/ha): 3 (Herbicidal rate of 40% or more and less than 70%)

SMILES: CCCC(=O)Oc1c(C)nn(C)c(=O)c1-c1c(-c2cccc(OCc3ccccc3)c2)sc2ccc(F)cc12 [2-268]
- herbicidal effect on H: barnyard grass (barnyard grass [1]): 4 (Herbicidal rate of 70% or more and less than 90%)
- herbicidal effect on D: Chinese sprangletop (Chinese sprangletop): 3 (Herbicidal rate of 40% or more and less than 70%)
- herbicidal effect on E: rice flat sedge (rice flat sedge): 3 (Herbicidal rate of 40% or more and less than 70%)
- herbicidal effect on F: southern crabgrass (southern crabgrass [2]): 0 (Herbicidal rate of 5% or less (almost no effect))
- herbicidal effect on G: green foxtail (green foxtail [3]): 0 (Herbicidal rate of 5% or less (almost no effect))
- herbicidal effect on H: barnyard grass (barnyard grass [4]): 0 (Herbicidal rate of 5% or less (almost no effect))
- herbicidal effect on I: wild oat (wild oat [5]): 0 (Herbicidal rate of 5% or less (almost no effect))
- herbicidal effect on J: blackgrass (blackgrass [6]): 0 (Herbicidal rate of 5% or less (almost no effect))
- herbicidal effect on K: Italian ryegrass (Italian ryegrass [7]): 3 (Herbicidal rate of 40% or more and less than 70%)
- herbicidal effect on L: windgrass (windgrass [8]): 0 (Herbicidal rate of 5% or less (almost no effect))
- herbicidal effect on M: velvetleaf (velvetleaf [9]): 0 (Herbicidal rate of 5% or less (almost no effect))
- herbicidal effect on N: redroot pigweed (redroot pigweed [10]): 0 (Herbicidal rate of 5% or less (almost no effect))
- herbicidal effect on O: lambsquarters (lambsquarters [11]): 0 (Herbicidal rate of 5% or less (almost no effect))
- herbicidal effect on P: chickweed (chickweed [12]): 0 (Herbicidal rate of 5% or less (almost no effect))
- F: southern crabgrass, herbicidal effect (criteria 0-5) (southern crabgrass [13]; AAH 320 g/ha): 1 (Herbicidal rate of 5% or more and less than 20%)
- G: green foxtail, herbicidal effect (criteria 0-5) (green foxtail [14]; AAH 320 g/ha): 4 (Herbicidal rate of 70% or more and less than 90%)
- H: barnyard grass, herbicidal effect (criteria 0-5) (barnyard grass [15]; AAH 320 g/ha): 4 (Herbicidal rate of 70% or more and less than 90%)
- I: wild oat, herbicidal effect (criteria 0-5) (wild oat [16]; AAH 320 g/ha): 0 (Herbicidal rate of 5% or less (almost no effect))
- K: Italian ryegrass, herbicidal effect (criteria 0-5) (Italian ryegrass [18]; AAH 320 g/ha): 2 (Herbicidal rate of 20% or more and less than 40%)
- L: windgrass, herbicidal effect (criteria 0-5) (windgrass [19]; AAH 320 g/ha): 1 (Herbicidal rate of 5% or more and less than 20%)
- M: velvetleaf, herbicidal effect (criteria 0-5) (velvetleaf [20]; AAH 320 g/ha): 1 (Herbicidal rate of 5% or more and less than 20%)
- N: redroot pigweed, herbicidal effect (criteria 0-5) (redroot pigweed [21]; AAH 320 g/ha): 3 (Herbicidal rate of 40% or more and less than 70%)
- O: lambsquarters, herbicidal effect (criteria 0-5) (lambsquarters [22]; AAH 320 g/ha): 3 (Herbicidal rate of 40% or more and less than 70%)
- P: chickweed, herbicidal effect (criteria 0-5) (chickweed [23]; AAH 320 g/ha): 5 (Herbicidal rate of 90% or more (almost completely withered))
- R: persian speedwell, herbicidal effect (criteria 0-5) (persian speedwell; AAH 320 g/ha): 4 (Herbicidal rate of 70% or more and less than 90%)
